According to patent US20220211731A1, “COMPOSITION FOR PROMOTING GLP-1 SECRETION” (SUNTORY HOLDINGS LIMITED, priority 2019, published 2022):

Columns and labels:
[1] = system: H716; assay: GLP-1 secretion amount of sweeteners, Experimental Example 1; assay type: cell-based, human; settings: H716, stock solution added, quantitation after further 24 hours, PBS as negative control, FIG. 1
Method: RebA, RebB, RebM, RebN, RebD, RebC, MogV, and stevioside were examined for their GLP-1 secretion-promoting effects. Specifically, the amount of GLP-1 secretion was measured by the following procedures.
Each test substance B, C, D, E, F, G, I, or J vas dissolved in PBS (Thermo Fisher Scientific Inc.) (Cat. No. 14190250) to obtain a stock solution. The concentration of the stock solution is shown below:
B (RebA); 5 mM, C (RebB); 1M, D (RebM); 2.5 mM, E (RebN); 1M, F (RebD); 2.5 mM, G (RebC); 2.5 mM, I (MogV); 1M, J(stevioside);1M
H716 (ATCC) (Cat. No. ATCC® CCL-251) was cultured in RPMI 1640 (10% FBS ((Thermo Fisher Scientific Inc.) (Cat. No. 10439024), 1 mM Sodium Pyruvate) in an incubator at 37° C., 5% CO2.
The preculture was performed for 2 weeks, and the cells were sufficiently recovered, and then cell stocks were prepared.
Cells were seeded in 96-well plates at 2×10^5 cells/90 μL (high) per well (N=4). At this time, the content of FBS in the medium was lowered to 0.5% to suppress cell proliferation.
After 24 hours, the sample at the highest concentration (i.e., stock solution) was added by 10 each.
After further 24 hours, quantitation of GLP-1 was performed. Specific procedures were followed the user guide of Human GLP-1 (7-36 amide) immunoassay kit (Cat. No. AL359) (Lot number 2361115) provided by PerkinElmer, Inc. PBS was used as a negative control (no sample).

[2] = Distribution ratio between pure water and toluene; assay type: physicochemical; settings: organic layer and aqueous layer could not be separated
Method: After each about 100 mL of pure water and toluene was charged into a separatory funnel, 30 mg of each steviol glycoside was added. The separatory funnel was sealed to avoid liquid leakage, and stirred with shaking using a shaker for about 30 minutes, and then allowed to stand. When the liquid layer was separated into two layers, the distribution ratio was measured by LCMS after sampling was performed from each layer.

[3] = Measurement of surface tension by plate method; assay type: physicochemical; settings: compared with other glycosides
Method: Surface tension Q is measured by a plate method. For example, a glycoside sweetener, which is a test substance, is added in an amount to have Brix 10 on a sucrose basis to prepare an aqueous solution. The surface tension of the prepared aqueous solution is measured by a plate method using an automatic surface tension meter (CBVP-Z type, manufactured by Kyowa Interface Science Co., Ltd).
Aqueous solutions containing RebA, RebD, and RebM (commercially available products) each were prepared. The contents of RebA, RebD, and RebM were aligned to Brix 10 on a sucrose basis. That is, the contents of RebA, RebD, and RebM were 333 ppm, 351 ppm, and 351 ppm, respectively. The surface tension of the obtained aqueous solution was measured by a plate method using an automatic surface tension meter (CBVP-Z type, manufactured by Kyowa Interface Science Co., Ltd). Water was used as a control and tested in the same manner.

[4] = Dissolution of sample in 1% DMSO-containing PBS; assay type: physicochemical; settings: final concentration of 1.5 mM (#24)
Method: To 20 mg of RebC, 21 μL of DMSO (manufactured by FUJIFILM Wako Pure Chemical Corporation, model number: 037-24053) was added. The mixture was then stirred by vortex and allowed to stand for several hours to obtain a stock solution having a RebC concentration of 1,000 mM. The obtained stock solution and PBS were used to prepare a 10 mM solution.
The 10 mM solution was diluted as needed with 1% DMSO-containing PBS to obtain Sample G-1 mM to Sample G-10 mM. The concentrations of RebC are described in Table 1.
For Sample B processed, final concentrations of 0.025 mM (#11) and 0.05 mM (#12) were added to the concentrations to be tested (0.1 to 2.5 mM).

emulsification phenomenon when measuring the distribution ratio [2] | surfactant effect (surface tension) [3] | dissolution of sample [4] | Molecule | amount of GLP-1 secretion compared with no sample [1]
had an emulsification phenomenon | higher than that of other glycosides |  | C=C1C[C@@]23CC[C@H]4[C@@](C)(CCC[C@@]4(C)C(=O)O[C@@H]4O[C@H](CO)[C@@H](O)[C@H](O)[C@H]4O)[C@@H]2CC[C@]1(O[C@@H]1O[C@H](CO)[C@@H](O)[C@H](O[C@@H]2O[C@H](CO)[C@@H](O)[C@H](O)[C@H]2O)[C@H]1O[C@@H]1O[C@H](CO)[C@@H](O)[C@H](O)[C@H]1O)C3 [RebA, Rebaudioside A] | significantly larger amounts of GLP-1 secretion than no sample
 |  | not able to be dissolved | rebaudioside C [RebC] | significantly larger amounts of GLP-1 secretion than no sample
 |  |  | C=C1C[C@@]23CC[C@H]4[C@@](C)(CCC[C@@]4(C)C(=O)O[C@@H]4O[C@H](CO)[C@@H](O)[C@H](O)[C@H]4O)[C@@H]2CC[C@]1(O[C@@H]1O[C@H](CO)[C@@H](O)[C@H](O)[C@H]1O[C@@H]1O[C@H](CO)[C@@H](O)[C@H](O)[C@H]1O)C3 [stevioside, Stevioside] | significantly larger amounts of GLP-1 secretion than no sample
 |  |  | rebaudioside B [RebB] | significantly larger amounts of GLP-1 secretion than no sample
 |  |  | C[C@H](CC[C@@H](O[C@@H]1O[C@H](CO[C@@H]2O[C@H](CO)[C@@H](O)[C@H](O)[C@H]2O)[C@@H](O)[C@H](O)[C@H]1O[C@@H]1O[C@H](CO)[C@@H](O)[C@H](O)[C@H]1O)C(C)(C)O)[C@H]1CC[C@@]2(C)[C@@H]3CC=C4[C@@H](CC[C@H](O[C@@H]5O[C@H](CO[C@@H]6O[C@H](CO)[C@@H](O)[C@H](O)[C@H]6O)[C@@H](O)[C@H](O)[C@H]5O)C4(C)C)[C@]3(C)[C@H](O)C[C@]12C [MogV, mogroside V] | significantly larger amounts of GLP-1 secretion than no sample
